# According to patent US20120083522A1, “MODULATION OF INFLAMMATORY RESPONSES BY FACTOR XI” (Isis Pharmaceuitcals, inc., priority 2009, published 2012):
# In the oligonucleotide strings, read from the 5' end, every base follows the letter of its sugar. An asterisk marks phosphorothioate; unmarked linkages are phosphodiester. Other units and linkages are bracketed, terminal groups are in braces. A string of capitals states the bases alone. e = 2'-O-(2-methoxyethyl) (MOE); [5mC] = 5-methylcytosine; d = 2'-deoxy (DNA)
# Columns and labels:
# mouse Factor XI mRNA = test: Cross-reactive antisense inhibition in primary mouse hepatocytes, 100 nM (Example 9); type: cell-based; details: approx. 24 h, percent inhibition relative to untreated control cells
# Method: Antisense oligonucleotides targeted to a murine Factor XI nucleic acid were tested for their effects on Factor XI mRNA in vitro. Cultured primary mouse hepatocytes at a density of 10,000 cells per well were treated with 100 nM antisense oligonucleotide. After a treatment period of approximately 24 hours, RNA was isolated from the cells and mouse Factor XI mRNA levels were measured by quantitative real-time PCR. Factor XI mRNA levels were adjusted according to total RNA content, as measured by RIBOGREEN®. Results are presented as percent inhibition of Factor XI, relative to untreated control cells.
# The chimeric antisense oligonucleotides in Tables 16 were designed as 5-10-5 MOE gapmers. The gapmers are 20 nucleotides in length, wherein the central gap segment is comprised of 10 2′-deoxynucleotides and is flanked on both sides (in the 5′ and 3′ directions) by wings comprising 5 nucleotides each. Each nucleotide in the 5′ wing segment and each nucleotide in the 3′ wing segment has a 2′-MOE modification. The internucleoside linkages throughout each gapmer are phosphorothioate (P═S) linkages. All cytidine residues throughout each gapmer are 5-methylcytidines. “Mouse target start site” indicates the 5′-most nucleotide to which the gapmer is targeted. “Mouse target stop site” indicates the 3′-most nucleotide to which the gapmer is targeted. All the mouse oligonucleotides listed show cross-reactivity between the mouse Factor XI mRNA (GENBANK Accession No. NM_028066.1), incorporated herein as SEQ ID NO: 6 and the human Factor XI mRNA (GENBANK Accession No. NM_000128.3), incorporated herein as SEQ ID NO: 1. “Human Target Start Site” indicates the 5′-most nucleotide in the human mRNA (GENBANK Accession No. NM_000128.3) to which the antisense oligonucleotide is targeted. “Human Target Stop Site” indicates the 3′-most nucleotide in the human mRNA (GENBANK Accession No. NM_000128.3) to which the antisense oligonucleotide is targeted. “Number of mismatches” indicates the mismatches between the mouse oligonucleotide and the human mRNA sequence.
# [1] = Tolerability in Sprague-Dawley rats: liver function (Example 23); type: in vivo; parameters: Albumin: unit not given here; details: plasma, 50 mg/kg s.c. twice per week for 6 weeks
# [2] = Tolerability in CD1 mice: liver function (Example 21); type: in vivo; parameters: Albumin: unit not given here; details: plasma, 50 mg/kg s.c. twice per week for 6 weeks
# [3] = Tolerability in CD1 mice: body and organ weights (Example 21); type: in vivo; details: 50 mg/kg s.c. twice per week for 6 weeks; for Body weight: increase over PBS control weight before start of treatment; for Kidney weight / Liver weight / Spleen weight: percentage of the body weight
# Method: Body weight was measured at the onset of the study and subsequently twice per week. The body weights of the mice are presented in Table 87 and are expressed increase in grams over the PBS control weight taken before the start of treatment. Liver, spleen, and kidney weights were measured at the end of the study, and are also presented in Table 87 as percentage of the body weight.
# [4] = Tolerability in Sprague-Dawley rats: hematology assays (Example 23); type: in vivo; parameters: RBC / WBC / Neutrophil / Lymphocyte / Platelets: unit not given here; details: blood
# [5] = Tolerability in CD1 mice: hematology assays (Example 21); type: in vivo; details: 50 mg/kg s.c. twice per week for 6 weeks
# [6] = Tolerability in Sprague-Dawley rats: body and organ weights (Example 23); type: in vivo; details: 50 mg/kg s.c. twice per week for 6 weeks; for Body weight: increase over PBS control weight before start of treatment; for Kidney weight / Liver weight / Spleen weight: percentage of the body weight
# [7] = Tolerability in CD1 mice: kidney function (Example 21); type: in vivo; details: plasma, 50 mg/kg s.c. twice per week for 6 weeks
# [8] = Tolerability in Sprague-Dawley rats: kidney function (Example 23); type: in vivo; details: for BUN: plasma; for Total urine protein / Urine protein/creatinine ratio: total urine samples
Substance,Inhibition of mouse Factor XI mRNA levels (column headed SEQ ID No.) (mouse Factor XI mRNA),ALT [1],AST [1],Albumin [1],Bilirubin [1],ALT [2],AST [2],Albumin [2],Bilirubin [2],Cholesterol [2],Body weight [3],Kidney weight [3],Liver weight [3],Spleen weight [3],HCT [4],Hemoglobin [4],Lymphocyte [4],Neutrophil [4],Platelets [4],RBC [4],further results
404050 (antisense eT*eG*e[5mC]*eT*eT*dG*dA*dA*dG*dG*dA*dA*dT*dA*dT*e[5mC]*e[5mC]*eA*eG*eA) [compound 404050],82,–,–,–,–,–,–,–,–,–,–,–,–,–,–,–,–,–,–,–,–
404054 (antisense eT*eA*eG*eT*eT*d[5mC]*dA*dT*dG*d[5mC]*d[5mC]*d[5mC]*dT*dT*d[5mC]*eA*eT*eG*eT*e[5mC]) [compound 404054],45,–,–,–,–,–,–,–,–,–,–,–,–,–,–,–,–,–,–,–,–
404055 (antisense eT*eG*eT*eT*eA*dT*dA*dG*dT*dT*d[5mC]*dA*dT*dG*d[5mC]*e[5mC]*e[5mC]*eT*eT*e[5mC]) [compound 404055],27,–,–,–,–,–,–,–,–,–,–,–,–,–,–,–,–,–,–,–,–
404066 (antisense eA*eA*eT*eG*eT*d[5mC]*d[5mC]*d[5mC]*dT*dG*dA*dT*dA*d[5mC]*dA*eA*eG*e[5mC]*e[5mC]*eA) [compound 404066],37,–,–,–,–,–,–,–,–,–,–,–,–,–,–,–,–,–,–,–,–
404067 (antisense eG*eG*eG*eA*eA*dA*dA*dT*dG*dT*d[5mC]*d[5mC]*d[5mC]*dT*dG*eA*eT*eA*e[5mC]*eA) [compound 404067],39,–,–,–,–,–,–,–,–,–,–,–,–,–,–,–,–,–,–,–,–
404083 (antisense eT*eG*eT*eG*e[5mC]*dA*dG*dA*dG*dT*d[5mC]*dA*d[5mC]*d[5mC]*dT*eG*e[5mC]*e[5mC]*eA*eT) [compound 404083],47,–,–,–,–,–,–,–,–,–,–,–,–,–,–,–,–,–,–,–,–
404087 (antisense eT*eT*e[5mC]*eT*eT*dG*dA*dA*d[5mC]*d[5mC]*d[5mC]*dT*dG*dA*dA*eG*eA*eA*eA*eG) [compound 404087],29,–,–,–,–,–,–,–,–,–,–,–,–,–,–,–,–,–,–,–,–
404089 (antisense eT*eG*eA*eA*eT*dT*dA*dT*d[5mC]*dA*dT*dT*dT*d[5mC]*dT*eT*eG*eA*eA*e[5mC]) [compound 404089],6,–,–,–,–,–,–,–,–,–,–,–,–,–,–,–,–,–,–,–,–
404090 (antisense eT*eG*eA*eT*e[5mC]*dA*dT*dG*dA*dA*dT*dT*dA*dT*d[5mC]*eA*eT*eT*eT*e[5mC]) [compound 404090],42,–,–,–,–,–,–,–,–,–,–,–,–,–,–,–,–,–,–,–,–
"ACAGTTTCTGGCAGGCCTCG (antisense; all C 5-methyl, all phosphorothioate, sugars by position not given here; MOE gapmer, 5-10-5) [ISIS 412223, 5-10-5 MOE gapmer]",–,85 IU/L,180 IU/L,5,0.14 mg/dL,60 IU/L,125 IU/L,3.0,0.20 mg/dL,117 mg/dL,12 g,1.5%,6%,0.4%,41%,13.1 g/dL,16990,1826,567,7.2,WBC [4]: 20; HCT [5]: 48%; Hemoglobin [5]: 15 g/dL; Lymphocyte [5]: 4599 cells/μL; Monocytes [5]: 200 cells/μL; Neutrophil [5]: 1756 cells/μL; Platelets [5]: 862 10^3/μL; RBC [5]: 9 10^6/μL; WBC [5]: 7 10^3/μL; Body weight [6]: 126 g; Kidney weight [6]: 1.0%; Liver weight [6]: 5%; Spleen weight [6]: 0.5%; BUN [7]: 28 mg/dL; creatinine [8]: 46 mg/dL; BUN [8]: 24 mg/dL; Total urine protein [8]: 224 mg/dL; Urine protein/creatinine ratio [8]: 4.6
"GCAGCGGACGGCATTGGTGC (antisense; all C 5-methyl, all phosphorothioate, sugars by position not given here; MOE gapmer, 5-10-5) [ISIS 412225, 5-10-5 MOE gapmer]",–,48 IU/L,108 IU/L,5,0.15 mg/dL,40 IU/L,69 IU/L,3.3,0.23 mg/dL,128 mg/dL,10 g,1.5%,6%,0.4%,42%,13.4 g/dL,13204,1499,673,7.4,WBC [4]: 15; HCT [5]: 50%; Hemoglobin [5]: 15 g/dL; Lymphocyte [5]: 4969 cells/μL; Monocytes [5]: 293 cells/μL; Neutrophil [5]: 1547 cells/μL; Platelets [5]: 574 10^3/μL; RBC [5]: 9 10^6/μL; WBC [5]: 7 10^3/μL; Body weight [6]: 184 g; Kidney weight [6]: 1.0%; Liver weight [6]: 4%; Spleen weight [6]: 0.5%; BUN [7]: 23 mg/dL; creatinine [8]: 58 mg/dL; BUN [8]: 23 mg/dL; Total urine protein [8]: 209 mg/dL; Urine protein/creatinine ratio [8]: 4.0
"GCATTGGTGCACAGTTTCTG (antisense; all C 5-methyl, all phosphorothioate, sugars by position not given here; MOE gapmer, 5-10-5) [ISIS 412224, 5-10-5 MOE gapmer]",–,84 IU/L,132 IU/L,4,0.12 mg/dL,214 IU/L,183 IU/L,3.4,0.19 mg/dL,114 mg/dL,10 g,1.6%,6%,0.5%,42%,13.4 g/dL,16807,1865,685,7.4,WBC [4]: 20; HCT [5]: 50%; Hemoglobin [5]: 15 g/dL; Lymphocyte [5]: 6284 cells/μL; Monocytes [5]: 195 cells/μL; Neutrophil [5]: 2107 cells/μL; Platelets [5]: 647 10^3/μL; RBC [5]: 10 10^6/μL; WBC [5]: 9 10^3/μL; Body weight [6]: 165 g; Kidney weight [6]: 1.0%; Liver weight [6]: 5%; Spleen weight [6]: 0.5%; BUN [7]: 29 mg/dL; creatinine [8]: 44 mg/dL; BUN [8]: 24 mg/dL; Total urine protein [8]: 171 mg/dL; Urine protein/creatinine ratio [8]: 3.8
"GGACGGCATTGGTGCACAGT (antisense; all C 5-methyl, all phosphorothioate, sugars by position not given here; MOE gapmer, 5-10-5) [ISIS 413482, 5-10-5 MOE gapmer]",–,59 IU/L,157 IU/L,4,0.14 mg/dL,54 IU/L,77 IU/L,3.0,0.24 mg/dL,138 mg/dL,11 g,1.6%,6%,0.5%,40%,13.2 g/dL,11430,1125,641,7.1,WBC [4]: 13; HCT [5]: 50%; Hemoglobin [5]: 15 g/dL; Lymphocyte [5]: 5584 cells/μL; Monocytes [5]: 275 cells/μL; Neutrophil [5]: 1958 cells/μL; Platelets [5]: 818 10^3/μL; RBC [5]: 10 10^6/μL; WBC [5]: 8 10^3/μL; Body weight [6]: 158 g; Kidney weight [6]: 1.0%; Liver weight [6]: 5%; Spleen weight [6]: 0.6%; BUN [7]: 27 mg/dL; creatinine [8]: 34 mg/dL; BUN [8]: 23 mg/dL; Total urine protein [8]: 157 mg/dL; Urine protein/creatinine ratio [8]: 4.8
